# Like-named read-outs stand apart in the source and are kept apart here.
# Columns and labels:
# [1] = Glucuronidation of 3-OHBaP in incubations with rat liver S9; format: in vitro ADME
# Protocol: (§1) All in vitro Vmax values were scaled to microsomal or S9 protein content of rat liver using the following scaling factors: 45 mg microsomal protein per gram liver tissue and 125 mg S9 protein per gram liver tissue (Houston and Galetin [2008]). The scaled Vmax values were subsequently converted to Vmax in nmol/min/liver using the liver weight of 9.1 g, calculated from the body weight and fractional liver weight presented in Table 1. The Km in vitro was assumed equal to the Km in vivo.
# (§2) Incubations with rat liver and lung S9 fractions were optimized to establish linearity over time and protein concentrations for the rate of glucuronidation and sulfation of 3-OHBaP. […]
# Kinetics for 3-OHBaP glucuronidation, were quantified using incubations with pooled liver S9 fractions from male SD rats. […]
# (§3) All incubation mixtures were pre-incubated for 1 min, after which the reaction was initiated by addition of 3-OHBaP in final concentrations ranging from 0.01 to 50 µM (glucuronidation) or 0.01–100 µM (sulfation) added from 100 times concentrated stock solutions in DMSO to reach the final volume of 200 µl (1% DMSO v/v). […] The supernatant was collected and analysed by Ultra Performance Liquid Chromatography (UPLC). […]
# [2] = rat PBK model; ref Crowell et al. (2011); cited from earlier work
# [3] = Metabolism of BaP in incubations with rat liver microsomes; format: in vitro ADME, rat
# Protocol: as §1
# (§4) The incubation mixtures consisted of (final concentrations) 0.1 mM potassium phosphate (pH 7.4), 5 mM MgCl2, 0.5 mg/ml rat liver microsomes or 2 mg/ml rat lung microsomes, and 1 mM NADPH in conical glass vials. […] The mixtures were incubated in a shaking water bath at 37 °C for 30 min. 20 µl ice-cold 10% (v/v) perchloric acid (HClO4) was added to terminate the reactions and the mixtures were put on ice for at least 15 min. Di-isopropyl ether (DIPE) was used to extract BaP and its metabolites from the incubation mixture. To this end, 1 ml DIPE was added to each incubation mixture, the tubes vortexed for 20 s and the upper layer was collected. Extraction was performed three times. Remaining DIPE was removed by evaporation under a stream of N2. Subsequently, extracts were re-dissolved in 100 µl methanol and transferred to UPLC vials for analysis.
# The UPLC was equipped with a Photodiode Array (PDA) detector, recording wavelengths between 190 and 400 nm and a Phenomenex C18 column (Phenomenex, Torrance, California, United States). The column temperature was kept at 40 °C and the auto-sampler at 4 °C during analysis. The mobile phase consisted of Nanopure water containing 0.1% (v/v) trifluoroacetic acid (TFA) (A) and acetonitrile containing 0.1% (v/v) TFA (B) at a flow rate of 0.3 ml/min. The total run time was 23 min and 30 s, starting with 10% B for 30 s, increasing to 100% B in 15 min, maintaining this condition for 3 min before returning to the initial conditions of 10% B in 30 s. 10 µl of sample was injected per run. Under these conditions the metabolite 3-OHBaP, detected at 258 nm, eluted at 10.16 min. For the glucuronidated and sulfonated metabolite of 3-OHBaP, retention time and detection wavelength were 7.5 min, 303.3 nm and 7.4 min, 301 nm, respectively. The amounts of 3-OHBaP in the microsomal incubation sample and of glucuronidated and sulfated 3-OHBaP in the S9 incubation samples were quantified by integrating peak areas at their respective wavelengths using a calibration curve prepared with commercially available 3-OHBaP. To obtain the Vmax and Km the in vitro data for the substrate concentration-dependent rate of metabolite formation were fitted to the Michaelis–Menten equation using Graphpad Prism 9.0.1 for Windows (GraphPad Software, San Diego, California, USA).
# [4] = 3-OHBaP in rat blood, read-out: Cmax reported, cited from earlier work
# [5] = PBK model prediction of 3-OHBaP blood concentrations in rat; details: intravenous; Marie et al. (2010)
# From the text: The conceptual PBK model for BaP consisted of separate compartments for venous blood, arterial blood, fat tissue, liver tissue, lung tissue, rapidly and slowly perfused tissue, stomach and intestines. 3-OHBaP is highly lipophilic. To prevent 3-OHBaP from partitioning into the fat tissue in the model simulations, it was essential to include a blood protein compartment in the model to allow binding of 3-OHBaP to blood protein. The unbound fraction of 3-OHBaP in the blood compartment was represented by the fub, in vivo, calculated as described in “Translating in vitro concentration–response data into in vivo dose–response data using PBK modelling-based reverse dosimetry” section. The fraction of 3-OHBaP bound to protein in the blood protein compartment (fb, in vivo) was calculated as 1 minus the fub, in vivo. […] Clearance of 3-OHBaP was assumed to result from hepatic and pulmonary conjugation (Cohen [1990]; Cohen and Moore [1976]). […]
# For oral exposure, stomach emptying and intestinal transfer of the parent compound were included. […] The Papp, in vivo was calculated using the following equation: log (Papp, in vivo) = 0.6836 × log (Papp, Caco−2) − 0.5579 (Sun et al. [2002]) and applied in the model as described before (Zhang et al. [2018]). […]
# [6] = Sulfation of 3-OHBaP in incubations with rat liver S9; format: in vitro ADME; details: male, SD, pooled rat liver S9, pH 7.4
# Protocol: as §1, §2
# Hepatic sulfonation of 3-OHBaP was evaluated using pooled liver S9 fractions of male SD rats, in incubation mixtures with a final volume of 200 µl in conical glass vials containing (final concentrations) 0.1 mM Tris–HCl (pH 7.4), 0.1 mg/ml rat liver S9 and 0.2 mM PAPS.
# as §3
# [7] = test system: ES-D3 cells; set-up: method as in Kamelia et al. (2020); details: without bioactivation; ref Kamelia et al. (2020); cited from earlier work
# [8] = test system: Caco-2 cells; details: cited from earlier work
# [9] = test system: F-344 rat; assay: In vivo reproductive toxicity of BaP (foetal survival), nasal inhalation; details: inhalation expressed as oral dose equivalent, data of Archibong et al. (2002)
# Protocol: Foetal survival, calculated as the fraction of live foetuses relative to the number of implantation sites reported in these studies, was taken as measure for in vivo reproductive toxicity. […] These oral dose equivalents in mg/kg bw were used for the comparison with model predicted dose–response data.
# ED50 values were calculated for the predicted and reported dose–response data, using the non-linear regression with three parameters in Graphpad Prism version 9.0.1 for Windows (GraphPad Software, San Diego, California USA). The ED50 value was calculated for the fraction differentiated into beating cardiomyocytes for the predicted dose–response data. For the in vivo studies, foetus survival (number of live foetuses as fraction of total implantations) was used as response.
# [10] = format: in vitro ADME; details: rat, 30 min, pH 7.4
# Protocol: as §4
# The UPLC was equipped with a Photodiode Array (PDA) detector, recording wavelengths between 190 and 400 nm and a Phenomenex C18 column (Phenomenex, Torrance, California, United States). […] Under these conditions the metabolite 3-OHBaP, detected at 258 nm, eluted at 10.16 min. […] The amounts of 3-OHBaP in the microsomal incubation sample and of glucuronidated and sulfated 3-OHBaP in the S9 incubation samples were quantified by integrating peak areas at their respective wavelengths using a calibration curve prepared with commercially available 3-OHBaP. […]
# [11] = rat, in vivo; cited from earlier work
# [12] = formation of the metabolite from BaP, rat liver microsomes
compound,measurement,setting,value
"Oc1ccc2ccc3c4ccccc4cc4ccc1c2c43 [3-OHBaP, 3-hydroxybenzo[a]pyrene]",Concentration at which substrate inhibition occurred,[1]; glucuronidation,≥ 50000 nM
same,Km at 20 min,"[1]; male, SD, pooled rat liver S9, pH 7.4, glucuronidation of 3-OHBaP",10 µM
same,"Tissue:blood partition coefficient, fat",[2],401
same,"Tissue:blood partition coefficient, liver",[2],12.24
same,"Tissue:blood partition coefficient, lung",[2],12.24
same,"Tissue:blood partition coefficient, rapidly perfused tissue",[2],12.24
same,"Tissue:blood partition coefficient, slowly perfused tissue",[2],6.43
same,Vmax,[3]; [12],162.2 ± 47.6 pmol/min/mg microsomal protein
same,Cmax,"[4]; intratracheal 10 mg/kg bw BaP, ref Moreau and Bouchard (2015)",140 nM
same,Cmax,"[4]; intravenous 10 mg/kg bw BaP, ref Marie et al. (2010)",720 nM
same,Cmax,"[4]; intravenous 10 mg/kg bw BaP, ref Moreau and Bouchard (2015)",220 nM
same,Cmax,"[4]; oral 10 mg/kg bw BaP, ref Moreau and Bouchard (2015)",100 nM
same,Cmax reported relative to predicted Cmax (fold higher),[5],1.1 fold
same,Km at 70 min,[6],17 µM
same,Result in the EST,[7],induces developmental toxicity
"c1ccc2c(c1)cc1ccc3cccc4ccc2c1c34 [BaP, benzo[a]pyrene]","Log Papp, Caco-2",[8],-5.42
same,"Papp, Caco-2",[8],3.8 x1E-6 cm/sec
same,Vmax,"[3]; rat, 30 min, pH 7.4",0.16 nmol/min/mg microsomal protein
same,Vmax scaled to the whole liver,"[3]; rat, 30 min, pH 7.4",4.1 µmol/min/liver
same,Km at 30 min,"[3]; rat, pH 7.4, Km",34 µM
same,ED50 derived from reported in vivo dose-response data,[9],29 mg/kg bw per day
same,Rate of 3-OHBaP formation,[10]; 200 µM,0.81 pmol/min/mg protein
same,Formation of 3-OHBaP in lung microsomes,[10],did not result in formation of detectable levels of 3-OHBaP
same,Blood concentration in maternal versus foetal blood,[11],similar
"O=C1C=Cc2ccc3c4c(ccc1c24)C(=O)c1ccccc1-3 [B[a]P-3,6-quinone]",Vmax,[3]; [12],3.0 ± 0.5 pmol/min/mg microsomal protein
"O=C1C=Cc2ccc3c4c(ccc1c24)-c1ccccc1C3=O [B[a]P-1,6-quinone]",Vmax,[3]; [12],22.2 ± 3.2 pmol/min/mg microsomal protein

# — PMC8448719 (Archives of Toxicology, 2021)
